One molecule from patent US9376424B2, “Methods for treating post traumatic stress disorder” (AZEVAN PHARMACEUTICALS, INC., priority 2010, dated 2016) can be followed below.

The subject of one test is resident male rats. The test can be described thus: Resident-Intruder Model of Stress and Aggression in Rats (neuroimaging). It is filed as in vivo, rat. Particulars: oral administration, intruder stimulus. An excerpt: Resident-Intruder Model of Stress and Aggression in Rats. Neuroimaging is used to assess the blockade of stress/arousal with test compound compared to control. The effect of AVN251-HCl on functional circuitry was examined using the imaging method for awake rats. Additional details of the assay are described in Ferris et al. (2008).
Male rats in the company of a female cage mate will piloerect in the presence of a male intruder. This piloerection is a sign of stress and aggressive intent and is associated with activation of stress/arousal circuits in the brain. […] Resident male rats from six male:female pairs were imaged while fully awake. During a single imaging session, these males were treated with vehicle or AVN251-HCl (5 mg/kg).
The total volume of brain activation for resident males confronted with their mate alone, mate plus intruder, and mate plus intruder in the presence of AVN251-HCl can be viewed as 3D models. While there appears to be a general decrease in BOLD signal in major regions with AVN251-HCl treatment, sexual motivation, as assessed by the presentation of a novel receptive female, was unaffected by V1a receptor blockade.
Stress circuit activation in response to an intruder male is assessed by obtaining brain scans viewed from a caudal/dorsal perspective as translucent shells. The localization of activated voxels is mapped as 3D volumes of activation, which are composed of 10 subjects each. Once fully registered and segmented, the statistical responses for each subject are averaged on a voxel-by-voxel basis. Those averaged voxels exceeding a 2.0% threshold are shown in their appropriate spatial location. Functional images are acquired on awake rats at 4.7 T.
The 3D volumes of activation are composed from results obtained with 10 subjects in each condition. […] Particular olfactory systems measured included the anterior olfactory nucleus, olfactory tubercle, piriform cortex, n. laterial olfactory tract, and entrorhinal cortex. Particular dopaminergic systems measured included the prelimbic cortex, accumbens, ventral pallidum, medial dorsal thalamus, and ventral tegmentum.
Awake rats were imaged when presented with their mate+an intruder, a highly stressful stimulus.

For a further test, the target named is V2 (Homo sapiens, UniProt P30518). The test can be described thus: V2 receptor inhibition data (Ki). The conditions noted are these: selectivity table. It is filed as binding.
V2, sequence (P30518 whole entry): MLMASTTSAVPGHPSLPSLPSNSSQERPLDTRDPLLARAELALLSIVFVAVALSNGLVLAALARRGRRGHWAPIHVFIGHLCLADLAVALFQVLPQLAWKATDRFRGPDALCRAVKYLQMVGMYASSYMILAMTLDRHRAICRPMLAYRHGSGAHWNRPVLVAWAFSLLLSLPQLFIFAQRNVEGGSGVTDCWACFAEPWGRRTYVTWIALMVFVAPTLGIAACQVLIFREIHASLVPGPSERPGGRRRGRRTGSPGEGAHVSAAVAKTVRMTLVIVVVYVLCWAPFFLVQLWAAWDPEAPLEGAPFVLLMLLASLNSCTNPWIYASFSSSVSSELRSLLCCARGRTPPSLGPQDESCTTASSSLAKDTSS
The target in another test is T1, V1b receptor (Homo sapiens, UniProt P47901).
T1 construct: expressed in transfected cells; host or cells: CHO-K1 (ATCC), vector PCI-neo
T1 sequence (P47901 1-424): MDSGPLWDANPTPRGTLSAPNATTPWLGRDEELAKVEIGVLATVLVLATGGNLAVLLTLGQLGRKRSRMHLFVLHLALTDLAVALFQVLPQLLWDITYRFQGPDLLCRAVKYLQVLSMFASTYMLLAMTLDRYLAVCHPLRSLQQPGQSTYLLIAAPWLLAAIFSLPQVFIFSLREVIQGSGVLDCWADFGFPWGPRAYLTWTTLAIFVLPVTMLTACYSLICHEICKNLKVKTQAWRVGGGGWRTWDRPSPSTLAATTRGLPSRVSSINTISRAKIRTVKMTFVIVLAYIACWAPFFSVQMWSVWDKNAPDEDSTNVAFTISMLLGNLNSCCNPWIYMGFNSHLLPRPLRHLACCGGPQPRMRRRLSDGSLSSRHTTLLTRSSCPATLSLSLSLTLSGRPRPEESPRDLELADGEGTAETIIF
Briefly: Human or rat vasopressin V1b cell-based receptor binding assay. The conditions noted are these: selectivity table; read-out: inhibition data (Ki, nM), Receptor V1b. An excerpt: Human vasopression V1b receptor-expressing cells. Human vasopressin receptor 1b (hV1b) cDNA (see, Lolait et al., “Extrapituitary expression of the rat V1b vasopressin receptor gene” Proc. Natl. Acad. Sci. USA. 92:6783-7 (1995); de Keyzer et al., “Cloning and characterization of the human V3(V1b) pituitary vasopressin receptor” FEBS Lett. 356:215-20 (1994); Sugimoto et al., “Molecular cloning and functional expression of a cDNA encoding the human V1b vasopressin receptor” J. Biol. Chem. 269:27088-92 (1994)) was inserted into a mammalian cell expression vector PCI-neo (Promega) at EcoR1 site. The recombinant plasmid carrying hV1b cDNA was identified from transformed E. Coli clones and used for the transfection of Chinese hamster ovary cell (CHO-K1, ATCC). Two micrograms of hV1b receptor DNA was introduced into 10^5 CHO cells cultured in 6-well plate, using Fugene-6 mediated transfection technique (Boehringer Mannheim). Twenty-four hrs post transfection, Cells were then cultured under selection of G-418 (0.25 mg/ml) supplemented to the culture medium. Three days later, limited dilution was carried out to obtain single cell clones in 96-well plates. […]
Human or rat vasopression V1b cell-based receptor binding assay. […] Samples were counted in a liquid scintillation counter (Beckman LS3801). IC50 and Ki values were calculated using Prism Curve fitting software. […]

Usually Ki stands for a dissociation constant, usually derived from enzyme kinetics or from competition with a known ligand. With `C[C@@H](NC(=O)[C@@H](CC(=O)N1CCC(N2CCCCC2)CC1)N1C(=O)[C@@H](N2C(=O)OC[C@@H]2c2ccccc2)[C@H]1C=Cc1ccccc1)c1ccccc1` [Example 224, 2(R)-[[4-(Piperidinyl)piperidinyl]carbonylmethyl]-2-[3(S)-(4(S)-phenyloxazolidin-2-on-3-yl)-4(R)-(2-styryl)azetidin-2-on-1-yl]acetic acid N—[(R)-α-methylbenzyl]amide], the “stress and aggressive motivation compared to controls” value in the test on resident male rats was “blocked stress and aggressive motivation”. Further, the Ki at V2 and at V1b receptor was over 1000 nM throughout.
